The record followed here is patent US8569280B2, “Methods for the treatment of multiple myeloma” (Immune Disease Institute, priority 2005, dated 2013).

Assay [1] deals with 5T33mM cells. The note with it: recipient mice treated with inhibitor. As for the experimental part: AMD3100 and PBS is implanted, and the survival rate after 2 hours, 24 hours and 6 days is measured.
5T33mM cells, obtained as described above, are injected into recipient mice.

The subject of another assay is MM cells. As to the kind of experiment: transwell migration assay of MM cells toward SDF-1. The assay is classed as cell-based. As for the experimental part: AMD3100 was evaluated in amounts of 0-100 μM with all wells containing 20 nM SDF-1 in the lower chambers. […] 10 μM of anti-CXCR4MAB171 antibody inhibited migration to 53%, and 200 μM of MAB171 inhibited migration to 35% compared to a control (P=0.007).
The transwell migration assay was used to test the effect of the CXCR4 inhibitor AMD3100 on the migration of MM cells.
Similarly, the transwell migration assay was used to test the effect of the anti-CXCR 4 antibody MAB171 (10-800 μM) for 16 hours and its IgG2a isotype control on the in vitro migration of MM cells. […] Anti-CXCR4MAB171 inhibited 10 μM migration to 53%, and 200 μM migration to 35% compared with the control (P=0.007).

Assay [2] relates to 5T33mM cells. Put plainly: survival and serum IgG2b of mice injected with 5T33mM cells. The assay is classed as in vivo, mouse. The note with it: subcutaneous osmotic pump, 25 mg/mL, 0.5 μl/hr, 21 days, started at the time of cell injection; versus PBS.
Procedure: FIG. 5 is a graph showing the survival of C57BL/6 mice after injection with 10×10^6 5T33^eGFP cells. Osmotic pumps are installed at the time of injection, and either AMD3100 or PBS is implanted. The osmotic pumps are changed every 7 days, and the pump administration is discontinued after 21 days.
AMD3100 is delivered via a subcutaneous osmotic pump at a concentration of 25 mg/mL and a delivery rate of 0.5 μl/hr. The osmotic devices delivered the drug for 21 days.

For `c1cc(CN2CCCNCCNCCCNCC2)ccc1CN1CCCNCCNCCCNCC1` [AMD3100], the “homing of 5T33mM cells to bone marrow” value in the assay on 5T33mM cells [1] (2 hours) is on record as “does not affect”. In addition, in the assay with 5T33mM cells [1] (24 hours), the “retention of 5T33mM cells in bone marrow” value is on record as “does not affect”. In the assay with 5T33mM cells [1] (6 days), the “proliferation/survival of 5T33mM cells in bone marrow” value is on record as “significantly reduces”. The inhibition at 10 µM with MM cells (10 μM AMD3100, 16 hours, 20 nM SDF-1 in lower chambers, read-out: inhibition of migration of MM cells compared with control) is 70%. Also, the “dose dependence of inhibition of MM cell migration” value in the assay with MM cells (AMD3100 0-100 μM, MAB171 0-400 μg/mL or 10-800 μM, 16 hours) is given as “dose-dependent inhibition of migration”. In the assay with MM cells (AMD3100 above 10 μM up to 100 μM, 16 hours), the “inhibition of migration at doses higher than 10 μM” value is “did not induce further inhibition of migration”. Also, the “survival of mice injected with 5T33 cells” value in the assay with 5T33mM cells [2] was “an increase in survival is observed”.
